Columns and labels:
PC-3 cells [1] = assay: CSC marker and signalling expression in PC-3 cells (western blotting, flow cytometry, RT-PCR); assay type: cell-based
Experimental: 5.1.5 Western blotting was carried out as described above under 1.1.5. The membrane was incubated with primary antibodies directed against CD133 (Miltenyi Biotec, Auburn, Calif.), Bcl-2, PARP, cleaved caspase 3, 7, 9 (Cell Signaling, Technology Inc, Beverly, Mass.), CD44 and β-actin (Santa Cruz Biotechnology, Santa Cruz, Calif.). After washing with TBS-T, the membrane was incubated with secondary antibody against either mouse or rabbit IgG and the signals were visualized using ECL plus western blotting system (Amersham, Piscataway, N.J.).
5.1.6 Semi-quantitative RT-PCR—Total RNA was isolated using TRIZOL® reagent (Invitrogen, Carlsbad, Calif.) following the manufacturer's instruction. cDNA was synthesized by using SuperScript First-Strand Synthesis System for RT (Invitrogen, Carlsbad, Calif.) and PCR was carried out with GeneAmp® PCR System 9700 (Applied Biosystems, Foster City, Calif.). The primers sequence and PCR condition for RT-PCR of CD133 were previously described. The amounts of mRNA were quantified relative to GAPDH.
5.1.8 Flow cytometry—Flow cytometry analysis of the CD44 positive cells were performed with procedure known in the art. Briefly, cells were incubated in PBS containing 2% FBS with PE-conjugated anti-human CD44 antibody. Isotype-matched mouse immunoglobulins served as controls. Samples were then analyzed using a FACS Calibur flow cytometer and CellQuest software (BD Biosciences, San Jose, Calif., USA).

PC-3 cells [2] = assay: Flow cytometry and western blotting, PC-3 cells; assay type: cell-based, human
Experimental: 1.1.3 Flow cytometry—Cell cycle distribution was examined using flow cytometry. Briefly, cells were harvested by trypsinization, fixed in 70% ethanol at 4° C. overnight, and then resuspended in PBS. After incubation at 4° C. for overnight, 2×10^6 cells were incubated with in 20 μg/ml propidium iodide (PI) and 2 mg RNaseA for 15 minutes at 37° C. Cells were then examined by BD SLRII cytometer and the results were analyzed using ModFit software (Becton Dickinson, Mountain View, Calif.). Data were expressed as the percentage of cell cycle distribution in the entire population.
1.1.5 Western blotting—Detailed protocols have been described previously and are known in the art. Briefly, cell lysates were prepared by suspending cell pellets in lysis buffer [50 mmol/l Tris-HCl (pH 8.0), 150 mmol/l NaCl, 1% NP40, 0.5% deoxycholate, 0.1% SDS, 1 mg/ml aprotinin, 1 μg/ml leupeptin and 1 mmol/l phenylmethylsulfonyl fluoride]. For nuclear protein extraction, NucBuster™ protein extraction kit was used. Protein concentration was measured using the DC Protein Assay kit (Bio-Rad, Hercules, Calif.). Equal amount of protein (30 μg) was loaded onto a 10% SDS polyacrylamide gel for electrophoresis and then transferred onto a polyvinylidene difluoride membrane (Amersham, Piscataway, N.J.). The membrane was then incubated with primary antibodies for 1 hr at room temperature against E-cadherin (BD Biosciences, Bedford, Mass.), α-catenin, β-catenin, γ-catenin, Id-1, Id-3, EGFR, phosphor-c-jun, phosphor-ATF2, cleaved PARP, vimentin, α-smooth muscle actin, twist (Santa Cruz Biotechnology, Calif.), phosphor-IkB-alpha (Ser32/36), phosphor-IKK alpha (Seri 80)/IKK beta (Ser181), phosphor-SAPK/JNK (Thr183/Tyr185) G9, SAPK/JNK, NF-kB p65 (5A5) (Cell Signaling Technology Inc, Beverly, Mass.), Snail (Abcam). After incubation with appropriate secondary antibodies, signals were visualized by ECL western blotting system (Amersham, Piscataway, N.J.). Expression of β-actin and histone H1 were assessed as an internal loading control for total cell lysate and nuclear protein lysate respectively.
2.1.4 Flow cytometry was carried out as described above under item 1.1.3. Matrigel-invasion assay was carried out as described above under item 1.1.4. Western blotting was carried out as described above under item 1.1.5.

PC-3-luc cells = assay: Orthotopic PC-3 xenograft model (tumorigenicity of pre-treated cells); assay type: in vivo, CB-17 SCID mice; conditions: cells pre-treated with 5 μg/ml for 24 hrs; two weeks after implantation
Experimental: 5.1.9 Orthotopic PC-3 xenograft model—The orthotopic model was established with procedures known in the art. Briefly, 8-week-old CB-17 SCID mice were anesthetized and placed under a dissecting microscope (Olympus, Tokyo, Japan). An incision at the midline of abdomen was made and the dorsal prostate was exposed at the base of the bladder. Equal amount of viable PC3-luc cells (2.6×10^4 cells resuspended in 5 μl of serum free RPMI) with or without prior γ-T3 treatment for 24 hrs were injected into the dorsal prostates of the mice. Organs were replaced and the abdomen was closed. To detect the bioluminescent signal of the cells, mice were anesthetized and then injected with 80 mg/kg of D-luciferin solution by i.p. (Xenogen Corporation, Cranbury, N.J.). Signal was captured by Xenogen IVIS 100 series imaging system. Tumors progression was monitored by measuring the bioluminescent signal (units of photons per second per unit area) every 2 weeks until 6-week post tumor implantation. Mice were sacrificed by cervical dislocation and tumors were collected and fixed in 10% formalin. All surgical and animal handling procedures were carried out according to the guidelines of the Committee on the Use of Live Animals in Teaching and Research (CULATR), The University of Hong Kong.

PC-3 cells [3] = assay: Spheroid (prostasphere) formation assay, PC-3 cells; assay type: cell-based; conditions: 5 μg/ml, untreated average 21 per well
Experimental: 5.1.7 Spheroid formation assay—Spheroid formation assay was performed with a protocol modified from previous study (Folkins C, p3560). Briefly, cells were first trypsinized, washed with 1× PBS and resuspended in DMEM F12 medium. Two hundred cells were added into each well of a 24-well-plate pre-coated with polyHEMA (Sigma, St. Louis, Mo.). Cells will be grown in DMEM/F12 mem (Invitrogen, Carlsbad, Calif.) supplemented with 4 μg/mL insulin (Sigma, St. Louis, Mo.), B27 (Invitrogen, Carlsbad, Calif.), 20 ng/mL EGF (Sigma, St. Louis, Mo.), and 20 ng/mL basic FGF (Invitrogen, Carlsbad, Calif.). Fresh medium with the above supplements was added every day. γ-T3 was added at indicated time points and the number of spheroids was counted at day 14 of the assay or at the end of the treatment. Each experiment was repeated in triplicates and each data point represented the mean and standard derivation.

CC(C)=CCC/C(C)=C/CC/C(C)=C/CCC1(C)CCc2cc(O)c(C)c(C)c2O1 (centres unmarked) [γ-T3, 7,8-dimethyltocotrienol]
population of CD44+ PC-3 cells (flow cytometry) (PC-3 cells [1]; 5 μg/ml, 24 hrs): found to decrease | CD133 mRNA level (PC-3 cells [1]; 2.5 and 5 μg/ml, 48 and 72 hrs): decrease of CD133 mRNA | protein expression of CD44 (CD133 similar) (PC-3 cells [1]; PC-3, 2.5 & 5 μg/ml, 24, 48 and 72 hours): significantly down regulated | expression of AKT (PC-3 cells [1]; low dose, 0 to about 5 μg/ml): downregulated | expression of Oct3/4 and Nestin (PC-3 cells [1]; low dose, 0 to about 5 μg/ml): upregulated | E-cadherin and γ-catenin protein expression (PC-3 cells [2]; PC-3): up-regulated | JNK phosphorylation (PC-3 cells [2]; PC-3): dosage- and time-dependent increase in JNK phosphorylation activities | NF-κB p65 activity (nuclear translocation) (PC-3 cells [2]; PC-3): suppressed constitutive NF-κB p65 activity in a dose-dependent and time-dependent manner | Snail and mesenchymal markers (vimentin, α-SMA and twist) expression (PC-3 cells [2]; PC-3, 24 hrs): down-regulated | activation of pro-apoptotic proteins (cleaved products) (PC-3 cells [2]; PC-3, 24 hrs): activation of procaspase 3, 7, 8, 9 as well as PARP | EGF-R expression (Id-1 and Id-3 similar) (PC-3 cells [2]; PC-3, increasing dosages): significantly suppressed to almost undetectable level | sub-G1 cell population (flow cytometry) (PC-3 cells [2]; γ-T3 IC50-95, 24 hrs): induction of sub-G1 cell population | mice that failed to develop visible tumor (PC-3-luc cells): 5 out of 7 | prostasphere formation (PC-3 cells [3]): no prostasphere
